What was measured:
[1] = target: T1, Human BACE1 (Homo sapiens, UniProt P56817); assay: Diluted TR-FRET assay; format: biochemical; settings: 50 times less enzyme, 6.5 h reaction time at r.t.; read-out: IC50 BACE1 (dil. TR-FRET)
T1 construct: the soluble part of the human β-Secretase1 (AA1-AA460) was cloned using the BACE1(1-460)-(AVT)-Fc-pGEN-IRES-neo mammalian expression vector; AVT linker (C); made in house
In short: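 Human BACE1 (residues 1-460) was fused to an IgG1 Fc affinity tag and stably expressed in HEK 293 cells. Using a Multidrop Combi, 7 μL enzyme was added to 0.8 μL compound in dimethylsulphoxide and incubated 10 minutes. Reactions were stopped with 5.5 μL NaOAC Stop solution (pH 9), and TR-FRET fluorescence was read on a Pherastar HTRF module.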

[2] = target: T2, Human BACE2 (Homo sapiens, UniProt Q9Y5Z0); assay: TR-FRET assay; format: biochemical; settings: enzyme 2.7 μg/mL, substrate 100 nM, pH4.5
T2 construct: the soluble part of the human β-Secretase2 (AA1-AA473) was cloned using BACE2(1-473)-(AVT)-Fc-pDEST12.2 mammalian expression vector; AVT linker (C); made in house
T2 sequence (Q9Y5Z0 21-473): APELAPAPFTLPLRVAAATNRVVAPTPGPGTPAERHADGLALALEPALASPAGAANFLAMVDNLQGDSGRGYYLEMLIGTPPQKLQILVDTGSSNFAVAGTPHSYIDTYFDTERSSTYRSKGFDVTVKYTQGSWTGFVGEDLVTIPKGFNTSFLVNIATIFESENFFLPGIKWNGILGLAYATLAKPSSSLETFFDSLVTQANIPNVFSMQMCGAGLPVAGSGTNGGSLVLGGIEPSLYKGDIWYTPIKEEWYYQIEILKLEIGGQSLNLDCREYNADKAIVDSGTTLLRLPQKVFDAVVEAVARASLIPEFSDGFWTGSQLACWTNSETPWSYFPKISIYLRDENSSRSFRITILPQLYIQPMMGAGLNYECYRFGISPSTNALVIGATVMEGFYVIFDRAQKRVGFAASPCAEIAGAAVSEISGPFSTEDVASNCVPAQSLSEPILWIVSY

[3] = test system: SH-SY5Y cells; assay: sAPPβ release assay; settings: Homo sapiens, SH-SY5Y, read-out: IC50 Cell (sAPPβ release, nM), SH-SY5Y cells, compounds incubated 16-17 h
Description: Cells were thawed and seeded at a concentration of around 10000 cells/well in DMEM/F-12 with Glutamax, 10% FCS and 1% non-essential amino acids to a 384-well tissue culture treated plate, 30 μL cell susp/well. The cell plates were then incubated for 7-24 h at 37° C., 5% CO2.
The cell medium was removed, followed by addition of 50 μL compound diluted in DMEM/F-12 with Glutamax, 10% FCS, 1% non-essential amino acids to a final cone of 0.5% DMSO. The compounds were incubated with the cells for 16-17 h (overnight) at 37° C., 5% CO2.
Meso Scale Discovery (MSD) plates were used for the detection of sAPP release. MSD sAPPβ plates were blocked in 1% BSA in Tris wash buffer for 1 h on shake at r.t. and washed 1 time in Tris wash buffer. […] The MSD plates were incubated with shaking at r.t. for 2 h and the media discarded. 10 μL detection antibody was added (1 nM) per well followed by incubation with shaking at r.t. for 2 h and then discarded. 35 μL Read Buffer was added per well and the plates were read in a Meso Scale Discovery SECTOR6000 Imager.

T1 sequence (P56817 22-460): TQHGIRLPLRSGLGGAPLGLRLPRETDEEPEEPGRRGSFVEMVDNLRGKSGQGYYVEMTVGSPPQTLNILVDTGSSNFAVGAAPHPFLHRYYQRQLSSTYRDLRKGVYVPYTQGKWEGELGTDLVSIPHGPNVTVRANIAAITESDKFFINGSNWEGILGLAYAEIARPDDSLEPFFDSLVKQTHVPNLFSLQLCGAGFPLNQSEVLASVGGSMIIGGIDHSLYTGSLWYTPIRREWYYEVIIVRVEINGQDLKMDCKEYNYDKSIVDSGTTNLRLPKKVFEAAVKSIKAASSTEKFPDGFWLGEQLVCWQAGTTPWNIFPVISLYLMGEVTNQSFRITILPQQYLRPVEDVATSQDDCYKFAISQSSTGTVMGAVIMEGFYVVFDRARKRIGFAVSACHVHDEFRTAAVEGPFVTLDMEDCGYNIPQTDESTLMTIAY

Row | IC50 [1] | IC50 [2] | IC50 [3] | SMILES
1 | 665 nM | 652 nM | 24.8 nM | [2H]C1([2H])OC(N)=NC12c1cc(/C=N/OCCC)ccc1C[C@]21CC[C@@H](OC)CC1 (stereo partly drawn) [Compound 53, (E)-2″-amino-4-methoxy-3′H,5″H-dispiro[cyclohexane-1,2′-indene-1′,4″-oxazole]-5″,5″-d2-6′-carbaldehyde O-propyl oxime]
2 | 1630 nM | 3240 nM | 57 nM | [2H]C1([2H])OC(N)=NC12c1cc(/C=N/OCC)ccc1C[C@]21CC[C@@H](OC)CC1 (stereo partly drawn) [Compound 56, (E)-2″-amino-4-methoxy-3′H,5″H-dispiro[cyclohexane-1,2′-indene-1′,4″-oxazole]-5″,5″-d2-6′-carbaldehyde O-ethyl oxime]
3 | 341 nM | > 5000 nM | 94.8 nM | [2H]C1([2H])OC(N)=NC12c1cc(-c3cncnc3)ccc1C[C@]21CC[C@@H](O)[C@H](C)C1 (stereo partly drawn) [Compound 57, (1R,3R,4R)-2″-amino-3-methyl-6′-(pyrimidin-5-yl)-3′H,5″H-dispiro[cyclohexane-1,2′-indene-1′,4″-oxazol]-5″,5″-d2-4-ol]
4 | 301 nM | 139 nM | 102 nM | [2H]C1([2H])OC(N)=NC12c1cc(-c3cc(C#N)cc(OC)c3)ccc1C[C@]21CC[C@@H](O)[C@H](C)C1 (stereo partly drawn) [Compound 58, 3-((1R,3R,4R)-2″-amino-4-hydroxy-3-methyl-3′H,5″H-dispiro[cyclohexane-1,2′-indene-1′,4″-oxazol]-6′-yl-5″,5″-d2)-5-methoxybenzonitrile]
5 | 2250 nM | 4990 nM | 128 nM | CO[C@H]1CC[C@]2(CC1)Cc1ccc(-c3cccnn3)cc1C21COC(N)=N1 (stereo partly drawn) [Compound 59, (1r,4r)-4-methoxy-6′-(pyridazin-3-yl)-3′H,5″H-dispiro[cyclohexane-1,2′-indene-1′,4″-oxazol]-2″-amine]
6 | > 5000 nM | > 5000 nM | 206 nM | [2H]C1([2H])OC(N)=NC12c1cc(/C(C)=N/OCCC(F)(F)F)ccc1C[C@]21CC[C@@H](OC)CC1 (stereo partly drawn) [Compound 60, (E)-1-((1r,4r)-2″-amino-4-methoxy-3′H,5″H-dispiro[cyclohexane-1,2′-indene-1′,4″-oxazol]-6′-yl-5″,5″-d2)ethan-1-one O-(3,3,3-trifluoropropyl)oxime]
7 | 1960 nM | 3440 nM | 207 nM | [2H]C1([2H])OC(N)=NC12c1cc(/C=N/OC3CCC3)ccc1C[C@]21CC[C@@H](OC)CC1 (stereo partly drawn) [Compound 61, (E)-2″-amino-4-methoxy-3′H,5″H-dispiro[cyclohexane-1,2′-indene-1′,4″-oxazole]-5″,5″-d2-6′-carbaldehyde O-cyclobutyl oxime]
8 | > 5000 nM | > 5000 nM | 250 nM | CO[C@H]1CC[C@]2(CC1)Cc1ccc(-c3ccnnc3)cc1C21COC(N)=N1 (stereo partly drawn) [Compound 62, (1r,4r)-4-methoxy-6′-(pyridazin-4-yl)-3′H,5″H-dispiro[cyclohexane-1,2′-indene-1′,4″-oxazol]-2″-amine]
9 | 1460 nM | > 5000 nM | 266 nM | [2H]C1([2H])OC(N)=NC12c1cc(-c3cncnc3)ccc1C[C@@]21CC[C@H](O)[C@@H](C)C1 (stereo partly drawn) [Compound 63, (1S,3S,4S)-2″-amino-3-methyl-6′-(pyrimidin-5-yl)-3′H,5″H-dispiro[cyclohexane-1,2′-indene-1′,4″-oxazol]-5″,5″-d2-4-ol]
10 | > 5000 nM | > 5000 nM | 307 nM | CO[C@H]1CC[C@]2(CC1)Cc1ccccc1C21COC(N)=N1 (stereo partly drawn) [Compound 64, (1r,4r)-4-methoxy-3′H,5″H-dispiro[cyclohexane-1,2′-indene-1′,4″-oxazol]-2″-amine]
11 | > 5000 nM | > 5000 nM | > 5000 nM | [2H]C1([2H])OC(N)=NC12c1cc(/C(C)=N/OCC)ccc1C[C@]21CC[C@@H](OC)CC1 (stereo partly drawn) [Compound 65, (E)-1-((1r,4r)-2″-amino-4-methoxy-3′H,5″H-dispiro[cyclohexane-1,2′-indene-1′,4″-oxazol]-6′-yl-5″,5″-d2)ethan-1-one O-ethyl oxime]
12 | 423 nM | > 5000 nM | 17 nM | [2H]C1([2H])OC(N)=N[C@]12c1cc(-c3cnccn3)ccc1C[C@]21CC[C@@H](OC)[C@H](C)C1 [Compound 69, (1R,1′R,3R,4R)-4-methoxy-3-methyl-6′-(pyrazin-2-yl)-3′H,5″H-dispiro[cyclohexane-1,2′-indene-1′,4″-oxazol]-5″,5″-d2-2″-amine]
13 | 1130 nM | > 5000 nM | 26.6 nM | [2H]C1([2H])OC(N)=N[C@]12c1cc(-c3cncnc3C)ccc1C[C@@]21CC[C@H](OC)[C@@H](C)C1 [Compound 70, (1S,1′R,3S,4S)-4-methoxy-3-methyl-6′-(4-methylpyrimidin-5-yl)-3′H,5″H-dispiro[cyclohexane-1,2′-indene-1′,4″-oxazol]-5″,5″-d2-2″-amine]
14 | 203 nM | > 5000 nM | 3.6 nM | [2H]C([2H])([2H])O[C@H]1CC[C@@]2(Cc3ccc(-c4cnccn4)cc3[C@]23N=C(N)OC3([2H])[2H])C[C@@H]1C [Compound 72, (1S,1′R,3S,4S)-4-(methoxy-d3)-3-methyl-6′-(pyrazin-2-yl)-3′H,5″H-dispiro[cyclohexane-1,2′-indene-1′,4″-oxazol]-5″,5″-d2-2″-amine]
15 | 45 nM | 600 nM | < 0.16 nM | [2H]C([2H])([2H])O[C@@H]1CC[C@]2(Cc3ccc(-c4cccnc4)cc3[C@]23N=C(N)OC3([2H])[2H])C[C@H]1C [Compound 80, (1R,1′R,3R,4R)-4-(methoxy-d3)-3-methyl-6′-(pyridin-3-yl)-3′H,5″H-dispiro[cyclohexane-1,2′-indene-1′,4″-oxazol]-5″,5″-d2-2″-amine]
16 | 423 nM | > 5000 nM | 17 nM | [2H]C([2H])([2H])O[C@@H]1CC[C@]2(Cc3ccc(-c4cnccn4)cc3[C@]23N=C(N)OC3([2H])[2H])C[C@H]1C [Compound 81, (1R,1′R,3R,4R)-4-(methoxy-d3)-3-methyl-6′-(pyrazin-2-yl)-3′H,5″H-dispiro[cyclohexane-1,2′-indene-1′,4″-oxazol]-5″,5″-d2-2″-amine]
17 | 138 nM | 1790 nM | 23 nM | [2H]C1([2H])CC2(N=C(N)O1)c1cc(-c3cncnc3)ccc1C[C@]21CC[C@@H](OC)CC1 (stereo partly drawn) [Compound 82, (1r,4r)-4-methoxy-6′-(pyrimidin-5-yl)-5″,6″-dihydro-3′H-dispiro[cyclohexane-1,2′-indene-1′,4″-[1,3]oxazin]-6″,6″-d2-2″-amine]
18 | 88.7 nM | 103 nM | 4.8 nM | [2H]C1([2H])CC2(N=C(N)O1)c1cc(-c3cncc(C#N)c3)ccc1C[C@]21CC[C@@H](OC)CC1 (stereo partly drawn) [Compound 84, 5-((1r,4r)-2″-amino-4-methoxy-5″,6″-dihydro-3′H-dispiro[cyclohexane-1,2′-indene-1′,4″-[1,3]oxazin]-6′-yl-6″,6″-d2)nicotinonitrile]
19 | 31.8 nM | 62.5 nM | 3.5 nM | [2H]C1([2H])CC2(N=C(N)O1)c1cc(-c3cc(C#N)cc(OC)c3)ccc1C[C@]21CC[C@@H](OC)CC1 (stereo partly drawn) [Compound 85, 3-((1r,4r)-2″-amino-4-methoxy-5″,6″-dihydro-3′H-dispiro[cyclohexane-1,2′-indene-1′,4″-[1,3]oxazin]-6′-yl-6″,6″-d2)-5-methoxybenzonitrile]
20 | 1950 nM | 340 nM | 450 nM | COCCCC1(C)Cc2ccc(-c3cc(C#N)cc(OC)c3)cc2C12COC(N)=N2 (stereo not drawn) [Compound 88, 3-(2′-amino-2-(3-methoxypropyl)-2-methyl-2,3-dihydro-5′H-spiro[indene-1,4′-oxazol]-6-yl)-5-methoxybenzonitrile]
21 | > 5000 nM | > 5000 nM | 889 nM | [2H]C1([2H])OC(N)=NC12c1cc(-c3cc(C#N)cc(OC)c3)ccc1CC2(C)C1CCOCC1 (stereo not drawn) [Compound 89, 3-(2′-amino-2-methyl-2-(tetrahydro-2H-pyran-4-yl)-2,3-dihydro-5′H-spiro[indene-1,4′-oxazol]-6-yl-5′,5′-d2)-5-methoxybenzonitrile]
22 | > 5000 nM | > 5000 nM | 715 nM | COCCCC1Cc2ccc(-c3cc(C#N)cc(OC)c3)cc2C12COC(N)=N2 (stereo not drawn) [Compound 90, 3-(2′-amino-2-(3-methoxypropyl)-2,3-dihydro-5′H-spiro[indene-1,4′-oxazol]-6-yl)-5-methoxybenzonitrile]
23 | 4660 nM | 701 nM | 331 nM | COc1cc(C#N)cc(-c2ccc3c(c2)C2(COC(N)=N2)C(C2CCOCC2)C3)c1 (stereo not drawn) [Compound 91, 3-(2′-Amino-2-(tetrahydro-2H-pyran-4-yl)-2,3-dihydro-5′H-spiro[indene-1,4′-oxazol]-6-yl)-5-methoxybenzonitrile]

Source: patent US10053453B2, “Compounds and their use as BACE inhibitors” (AstraZeneca AB, priority 2014, dated 2018)
